Measurements from patent publication US8710089B2, “Triazole derivatives as ghrelin analogue ligands of growth hormone secretagogue receptors” (Zentaris GmbH, priority 2005, dated 2014).

Legend:
human GHS-R 1a = target: T1, human GHS-R 1a (Homo sapiens, UniProt Q92847); test: GHS-R 1a receptor-ligand binding assay (membrane preparations from transfected LLC PK-1 cells); details: displacement of 125I-His9-ghrelin (60 pM); membranes of LLC PK-1 cells transfected with human GHS-R 1a; mean of at least two independent experiments in triplicates
T1 construct: expressed in transfected cells; host or cells: LLC PK-1 porcine renal epithelial cells (ECACC No. 86121112), isolated plasma membranes
T1 sequence (Q92847 whole entry): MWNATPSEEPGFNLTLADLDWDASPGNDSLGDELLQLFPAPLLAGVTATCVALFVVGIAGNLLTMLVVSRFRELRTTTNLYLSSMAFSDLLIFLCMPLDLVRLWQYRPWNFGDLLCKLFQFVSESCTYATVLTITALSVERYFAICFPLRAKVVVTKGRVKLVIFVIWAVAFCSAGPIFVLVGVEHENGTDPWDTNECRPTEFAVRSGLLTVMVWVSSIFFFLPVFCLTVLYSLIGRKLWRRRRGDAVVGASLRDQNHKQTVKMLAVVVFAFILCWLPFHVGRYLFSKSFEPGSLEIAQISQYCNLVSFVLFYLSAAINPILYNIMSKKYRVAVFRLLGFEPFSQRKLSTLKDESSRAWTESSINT
Outline: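 Membranes from LLC PK-1 cells expressing human GHS-R 1a incubated 60 min at 25 °C in 50 mM Tris pH 7.3, 5 mM MgCl2, 2.5 mM EDTA, bacitracin with 60 pM 125I-ghrelin and competitor; nonspecific binding with 10^-6 M ghrelin; filtration read-out.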

[1] = system: GH concentration in the plasma of male rat pups; test: In vivo GH concentration in the plasma of male rat pups; set-up: species or system rat (Sprague-Dawley); details: rat pup plasma, killed 15 min later
Experimental: IV) Assaying In Vivo GH Concentration in the Plasma of Male Rat Pups
GH plasma concentrations of male rat pubs were assayed to characterize the modulation effect (antagonistic or agonistic) of the compounds of the invention being GHS receptor analogue ligands.
In principle, assaying in vivo GH concentration in rat plasma was performed according to Torsello et al. (Eur. J. Pharmacol. 1998, 360: 123-129).
Male Sprague-Dawley rat pups (Charles River, Calco, Italy) were separated on postnatal day seven from their mothers and randomly redistributed to the dams, so that each one nurtured ten to twelve pups. On postnatal day ten, the pups were again separated from their mothers.
The compounds to be tested were dissolved in solvent [DMSO (0.4% of total volume), distilled water (4% of total volume), brought to the final volume with physiological saline].
One hour after separation from their mothers, the pups were given isovolumetric amounts of the compounds to be tested (160 μg/kg body weight s.c.) at time −10 min and then administered with hexarelin (80 μg/kg body weight s.c.) or solvent at time 0 min before being killed 15 min later by decapitation. Trunk blood was collected, immediately centrifuged and plasma samples were stored at −20° C. until assayed for the determination of GH concentrations.
Plasma GH concentrations were measured using a rat growth hormone enzyme immunoassay kit (SPIbio, France, cat. no. 589601) according to the manufacturer's instructions. Values are expressed in terms of NIDDK rat-GH-RP2 standard (potency 2 IU/mg) as ng/mL of plasma
The limit of detection calculated as the concentration producing 15% displacement of initial tracer was 0.5 ng/ml; intra-assay and inter-assay coefficient of variation are 4% (n=24) and 14% (n=9).
In the following table 3 results obtained for selected compounds of the invention are presented.

[2] = system: young-adult male Sprague-Dawley rats; test: Feeding behavior (food intake) of young-adult male rats; type: in vivo, rat (Sprague-Dawley)
Experimental: V) Assaying the Feeding Behavior (Food Intake) of Young-Adult Male Rats
The impact of compounds of the invention being GHS receptor analogue ligands on the feeding behaviour, i.e. food intake, of young-adult male rats was assayed.
In principle, assaying the feeding behavior (food intake) of young-adult male rats was performed according to Torsello et al. (Eur. J. Pharmacol. 1998, 360: 123-129).
For the assay, young-adult male Sprague-Dawley rats (Charles River, Calco, Italy), weighing 200-250 g, were used.
Rats had 1 week of acclimation in individual home cages, and animal room conditions (22±2° C., 65% humidity, artificial light from 08.00 to 20.00 h). The following week, they were daily trained to mimic the experimental procedure. Rats maintained free access to dry pellets and tap water throughout the whole experimental period. At the end of training, rats were administered (around 10.00-11.00 a.m.) subcutaneously with the compounds to be tested (160 μg/kg body weight) and/or hexarelin (80 μg/kg body weight) and/or solvent [DMSO (0.4% of total volume), distilled water (4% of total volume), brought to the final volume with physiological saline].
Hexarelin was used to study the effects of the compounds to be tested on stimulated feeding behavior. Immediately after the injections, the animals were returned to their home cages, which contained a known amount of standard rat chow and ad libitum water. Every hour for the following 6 hours, the remaining food was carefully collected and weighed to the nearest 0.1 g. Food intake was normalized for the body weight of the rats and expressed as grams of food eaten per 100 g body weight of rats.
In the following table 4 results obtained for selected compounds of the invention are presented.

[3] = target: T2, Motilin-Receptor 1a (MTL-R1a) (Homo sapiens, UniProt O43193); test: Motilin receptor-ligand binding assay (human recombinant HEK-293 cells); details: 0.1 nM [125I] Motilin, read-out: MTL-R 1a IC50
T2 construct: expressed in transfected cells; host or cells: HEK-293 cells
T2 sequence (O43193 whole entry): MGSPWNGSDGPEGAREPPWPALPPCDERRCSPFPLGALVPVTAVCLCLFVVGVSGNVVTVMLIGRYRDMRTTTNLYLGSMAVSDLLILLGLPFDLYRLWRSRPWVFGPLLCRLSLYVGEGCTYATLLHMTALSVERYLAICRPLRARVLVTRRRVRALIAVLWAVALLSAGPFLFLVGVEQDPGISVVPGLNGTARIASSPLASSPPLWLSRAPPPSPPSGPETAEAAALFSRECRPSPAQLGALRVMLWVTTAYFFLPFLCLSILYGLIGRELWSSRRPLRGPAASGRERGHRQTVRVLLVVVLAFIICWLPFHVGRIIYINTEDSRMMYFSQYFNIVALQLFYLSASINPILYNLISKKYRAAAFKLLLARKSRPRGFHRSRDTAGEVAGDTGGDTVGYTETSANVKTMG
Experimental: VI) Motilin Receptor-Ligand Binding Assay (Using Human Recombinant HEK-293 Cells)
Motilin Receptor binding/affinity studies were performed as described by Feighner S D et al. (Science 1999, 284: 2184-2188). The assays were run under the following conditions:
Compounds of the invention were tested in concentrations comprising 0.01 μM, 0.1 μM, 1 μM and 10 μM.
IC50 values were determined by a non-linear, least square regression analysis using Data Analysis Toolbox (MDL Information Systems, USA).
In the following table 5 results obtained for selected compounds of the invention are presented.

[4] = compound 160 μg/kg s.c. at -10 min + hexarelin 80 μg/kg s.c. at 0 min
[5] = compound alone 160 μg/kg body weight s.c. at -10 min, solvent at 0 min
[6] = compound 160 μg/kg s.c. + hexarelin 80 μg/kg s.c.
[7] = compound alone, 160 μg/kg body weight s.c.

IC50 (human GHS-R 1a)	IC50 [3]	SMILES	GH concentration [1, 4]	GH concentration [1, 5]	Cumulative food intake (after 2 hours) [2, 6]	Cumulative food intake (after 6 hours) [2, 6]	Cumulative food intake (after 2 hours) [2, 7]	Cumulative food intake (after 6 hours) [2, 7]
0.014 µM		COc1ccc(Cn2c(CCc3ccccc3)nnc2[C@@H](Cc2c[nH]c3ccccc23)NC(=O)C(C)(C)N)cc1 [compound 20, (R)—N-(1-(4-(4-methoxybenzyl)-5-phenethyl-4H-1,2,4-triazol-3-yl)-2-(1H-indol-3-yl)ethyl)-2-amino-2-methylpropanamide]	220.51 ± 15.52 ng/mL	5.27 ± 0.59 ng/mL	0.53 ± 0.21 g food/100 g body weight	0.63 ± 0.19 g food/100 g body weight	0.01 g food/100 g body weight	0.2 ± 0.19 g food/100 g body weight
0.028 µM		COc1ccc(Cn2c(CCc3c[nH]c4ccccc34)nnc2[C@@H](Cc2c[nH]c3ccccc23)NC(=O)[C@H]2CCCN2)cc1 [compound 90, (R)—N—((R)-1-(5-(2-(1H-indol-3-yl)ethyl)-4-(4-methoxybenzyl)-4H-1,2,4-triazol-3-yl)-2-(1H-indol-3-yl)ethyl)pyrrolidine-2-carboxamide]	218.844 ± 19.723 ng/mL	16.857 ± 2.152 ng/mL	0.054 ± 0.041 g food/100 g body weight	0.069 ± 0.041 g food/100 g body weight	0.014 ± 0.001 g food/100 g body weight	0.035 ± 0.003 g food/100 g body weight
0.006 µM		COc1ccc(Cn2c(CCc3c[nH]c4ccccc34)nnc2[C@@H](Cc2c[nH]c3ccccc23)NC(=O)C(C)(C)N)cc1 [compound 12, (R)—N-(1-(5-(2-(1H-indol-3-yl)ethyl)-4-(4-methoxybenzyl)-4H-1,2,4-triazol-3-yl)-2-(1H-indol-3-yl)ethyl)-2-amino-2-methylpropanamide]	200.0 ± 19.7 ng/mL	4.0 ± 0.12 ng/mL	0.13 ± 0.07 g food/100 g body weight	0.48 ± 0.22 g food/100 g body weight	0.034 ± 0.011 g food/100 g body weight	0.06 ± 0.019 g food/100 g body weight
0.16 µM		COc1ccc(Cn2c(CCc3c[nH]c4ccccc34)nnc2[C@@H](Cc2c[nH]c3ccccc23)NC(=O)C(C)(C)N)c(OC)c1 [compound 1, (R)—N-(1-(5-(2-(1H-indol-3-yl)ethyl)-4-(2,4-dimethoxybenzyl)-4H-1,2,4-triazol-3-yl)-2-(1H-indol-3-yl)ethyl)-2-amino-2-methylpropanamide]	80.22 ± 18.66 ng/mL		0.06 ± 0.02 g food/100 g body weight	0.33 ± 0.21 g food/100 g body weight	0.02 ± 0.002 g food/100 g body weight	0.06 ± 0.03 g food/100 g body weight
0.046 µM		CC(C)(N)C(=O)N[C@H](Cc1c[nH]c2ccccc12)c1nnc(CCCc2c[nH]c3ccccc23)n1Cc1ccccc1 [compound 9, (R)—N-(1-(5-(3-(1H-indol-3-yl)propyl)-4-benzyl-4H-1,2,4-triazol-3-yl)-2-(1H-indol-3-yl)ethyl)-2-amino-2-methylpropanamide]	183.562 ± 16.729 ng/mL	13.016 ± 1.960 ng/mL	0.0104 ± 0.0032 g food/100 g body weight	0.0231 ± 0.0032 g food/100 g body weight	0.01 ± 0 g food/100 g body weight	0.01 ± 0 g food/100 g body weight
0.0011 µM	1.39 µM	COc1ccc(Cn2c(CCc3ccccc3)nnc2[C@@H](Cc2c[nH]c3ccccc23)NC(=O)c2ccccn2)c(OC)c1 [compound 64, (R)—N-(1-(4-(2,4-dimethoxybenzyl)-5-phenethyl-4H-1,2,4-triazol-3-yl)-2-(1H-indol-3-yl)ethyl)picolinamide]	138.394 ± 14.580 ng/mL	13.056 ± 2.169 ng/mL	0.012 ± 0.004 g food/100 g body weight	0.021 ± 0.007 g food/100 g body weight	0.012 ± 0.008 g food/100 g body weight	0.039 ± 0.011 g food/100 g body weight
0.018 µM		COc1ccc(Cn2c(CCc3c[nH]c4ccccc34)nnc2[C@@H](Cc2c[nH]c3ccccc23)NC(=O)C2CNCCN2)cc1 (stereo partly drawn) [compound 81]	216.575 ± 19.734 ng/mL	18.634 ± 2.933 ng/mL	0.024 ± 0.0101 g food/100 g body weight	0.116 ± 0.077 g food/100 g body weight	0.017 ± 0.004 g food/100 g body weight	0.03 ± 0 g food/100 g body weight
0.027 µM		COc1ccc(Cn2c(CCc3ccccc3)nnc2[C@@H](Cc2c[nH]c3ccccc23)NC(=O)[C@H]2CCCN2)cc1 [compound 47, (R)—N—((R)-1-(4-(4-methoxybenzyl)-5-phenethyl-4H-1,2,4-triazol-3-yl)-2-(1H-indol-3-yl)ethyl)pyrrolidine-2-carboxamide]	160.857 ± 13.52 ng/mL	5.658 ± 1.192 ng/mL	0.35 ± 0.201 g food/100 g body weight	0.47 ± 0.1943 g food/100 g body weight	0.006 ± 0.002 g food/100 g body weight	0.02 ± 0 g food/100 g body weight
0.012 µM		COc1ccc(Cn2c(CCCc3ccccc3)nnc2[C@@H](Cc2c[nH]c3ccccc23)NC(=O)C(C)(C)N)cc1 [compound 22, (R)—N-(1-(4-(4-methoxybenzyl)-5-(3-phenylpropyl)-4H-1,2,4-triazol-3-yl)-2-(1H-indol-3-yl)ethyl)-2-amino-2-methylpropanamide]	239.91 ± 19.75 ng/mL	4.88 ± 0.33 ng/mL	0.67 ± 0.12 g food/100 g body weight	0.86 ± 0.18 g food/100 g body weight	0.01 g food/100 g body weight	0.44 ± 0.2 g food/100 g body weight
